Assay results reported in patent US20260014175A1, “PHARMACEUTICAL COMPOSITION FOR ORAL ADMINISTRATION OF CANNABINOIDS” (EM[…]., priority 2022, published 2026).

Assay: Compatibility of CBD / CBD-containing SNEDDS with excipients (CBD release in SGF, SIF, FaSSIF)
Type: physicochemical
Description: A number of different compositions were prepared and tested in order to determine the compatibility of CBD and/or CBD-containing self-nanoemulsifying drug delivery systems (SNEDDS) with various excipients.

Row | SMILES | compatibility with CBD/CBD-containing SNEDDS
1 | O=C([O-])CN(CCN(CC(=O)[O-])CC(=O)O)CC(=O)O.[Na+].[Na+] [EDTA sodium] | no signs of incompatibility
2 | NCC(=O)O [Glycine] | no signs of incompatibility
3 | CCCCCCCCCCCCOS(=O)(=O)[O-].[Na+] [Sodium lauryl sulfate (SLS), Sodium lauryl sulfate] | no signs of incompatibility
